Experimental data from patent US20030124742A1, “Conjugates targeted to target receptors” (priority 2001, published 2003).
In brackets after ≈: the same amount, converted by molar mass. Like-named read-outs stand apart in the source and are kept apart here. Where no end group is shown, it is not given here.

How the values were obtained:
[1] = test system: human T lymphoma cell line HUT 78; assay: In vitro cytotoxicity assay (MTS), HUT 78; type: cell-based; details: HuT78, 48 h, DXR equivalent concentration, about two days incubation, read-out: IC50 against HUT 78
Method: (§1) On the day prior to starting the assay, cells were fed with fresh tissue culture medium (RPMI 1640+10% FCS for most cell lines, use other media as appropriate). A conjugate test solution was prepared in culture medium, with a concentration that is twice the final desired test concentration. Typically with doxorubicin (DXR) conjugates, a DXR equivalent concentration range of 100 μM down to 0.1 μM, using 1:2 serial dilutions is used. All concentrations are calculated and reported in terms of final DXR concentration (as opposed to total conjugate concentration).
(§2) The cell suspension is prepared at a concentration of 1-2×10^6 cells/Ml in culture medium. To each well of a 96-well, flat-bottom, microtiter plate (Falcon Microtest III assay plates, No. 3872) was added 50 μl of the cell suspension prepared above. A 50 μl of conjugate solution was added to each well of the assay plate. […]
(§3) The following blank and control wells were prepared: Plate Blank=100 μl of tissue culture medium only; cell control=50 μl cell suspension+50 μl tissue culture medium; and conjugate Blanks=50 μl 2× conjugate solution +50 μl tissue culture medium. […] Using a 96-well microplate reader, the absorbance of each well was measured at 490 nm. For each conjugate test concentration, the % cytotoxicity was calculated using the following formula: % Cytotoxicity=(1−[Abs. Conjugate Test Group/Abs. Cell Control])×100.

[2] = test system: human ovarian cancer cell line A-2780R; assay: In vitro cytotoxicity assay (MTS), A-2780R; type: cell-based; details: DXR equivalent concentration, read-out: IC50 against A-2780R
Method: as §1, §2, §3

HUT 78 tumor = assay: In vivo efficacy, murine model of human cutaneous T-cell lymphoma (HUT 78)
Method: In vitro cytotoxicity against human T-cell lymphoma cell line HUT 78 and human ovarian cancer cell lines A-2780R, as well as in vitro screening on several fresh human tumor specimens from different types of cancer were evaluated. The in vivo efficacy was determined using murine models for human cutaneous T-cell lymphoma. Free doxorubicin and liposomal doxorubicin (DOXIL®) were used as controls for the experiments. The “WL00” moiety comprises the GFLG peptide (SEQ ID NO 1).
The efficacy of mpPEG-WL00-DXR in vivo was also evaluated. A single dose treatment of 30 mg/kg was used for the conjugate and DOXIL®, whereas 15 mg/kg (equivalent doxorubicin dose) was used for unconjugated DXR. […] The percent tumor growth inhibition at day 15 for CA 1043-136, TM 1192-029-1 and TM 1192-038 was 84, 79 and 84, respectively.
In addition, a DXR conjugate with 8.7% DXR loading (TM 1192-107-1) was evaluated in both human T-lymphoma cell line HUT 78 and ovarian cancer cell line A-2780R animal tumor model. […] It is also worth noting that the conjugate CA 1043-36 was very active after two years of storage as a lyophilized powder at 4° C.

[3] = test system: human ovarian cancer cell line A-2780R tumor; assay: In vivo efficacy, murine tumor model of subcutaneously implanted A-2780R; details: 30 mg/kg
Method: Efficacy of mpPEG-WL00-DXR conjugate was also compared with DOXIL® in a murine tumor model generated by subcutaneously implanting human ovarian cancer cell line A-2780R. […] At day 21, the tumor growth inhibition in the animal treated with TM 1192-029-1 animal was 92%. The unconjugated DXR at 30 mg/kg gave 70% tumor growth inhibition.

[4] = Body distribution of DXR in mice bearing HuT 78 xenografts; type: in vivo, NIH III mice; details: 2.5 mg/kg, 72 hours
Method: NIH III mice bearing HuT 78 xenografts were administered with conjugated DXR and free DXR at a dose of 2.5 mg/kg of DXR equivalent. After 72 hours, the mice were sacrificed and tissue samples were prepared for analysis for free or total DXR.
The total amount of DXR was determined after hydrolysis of free and conjugated DXR to generate aglycon. The amount of bound conjugate was computed as the difference between total and free DXR.

[5] = test system: PC3 human prostate carcinoma cell line; assay: EDR assay, PC3 (storage stability of stock solutions); type: cell-based
Method: (§4) The PC3 prostate carcinoma, as well as the MCF7-WT and SK-BR3 breast carcinoma cell lines were obtained from ATCC and maintained in RPMI 1640 (GibcoBRL, Grand Island, N.Y.) supplemented with 10% fetal bovine serum (FBS, Omega Scientific, Tarzana, Calif.), 100 IU/ml penicillin, 100 μg/ml streptomycin, and 2 mM L-glutamine (Irvine Scientific, Irvine, Calif.) (complete growth medium). Cells were harvested with 0.25% trypsin (GibcoBRL) after washing twice with phosphate-buffered saline (PBS, Irvine Scientific), then washed with complete medium, counted and checked for viability using trypan blue. Different passages of the cell line were tested for their resistance to WL68-DXR vs. native doxorubicin to evaluate the stability of WL68-DXR under storage at −70° C. […]
(§5) 103 mg of 20 KD mpPEG-8PA-WL68-DXR (further referred to as WL-68-DXR) was dissolved in 10.3 ml of sterile PBS, aliquoted in plastic 1 ml tubes and kept at −70° C. until analysis. […] Positive controls were determined using at least 2 wells treated with an extremely high dose of cisplatin. […]
(§6) Cells were incubated with drugs under standard culture conditions for five days. […] The radioactivity trapped on the filters was counted with a Beckman scintillation counter. The fraction of surviving cells was determined by comparing ^3H-TdR incorporation in treated (experimental points) and untreated (negative control) wells. […]

[6] = test system: MCF7-WT (HER-2 negative) breast carcinoma cell line; assay: EDR assay, MCF7-WT; type: cell-based; details: Homo sapiens, 120 h, 5 days of incubation
Method: as §4, §5, §6

[7] = test system: SK-BR3 (HER-2 positive) breast carcinoma cell line; assay: EDR assay, SK-BR3; type: cell-based; details: Homo sapiens, SK-BR-3, 120 h; 5 days of incubation
Method: as §4, §5, §6

[8] = test system: HER-2-negative fresh breast carcinoma specimens; assay: EDR assay, HER-2-negative fresh breast carcinoma specimens; type: cell-based; details: Homo sapiens, nine specimens
Method: (§7) Tumor cells were suspended in 0.12% soft agar in complete medium, and plated at different cell concentrations (typically, 3,000 cells for the cell lines and 15,000 cells per well for fresh tumor specimens) onto a 0.4% agarose underlayer in 24-well plates. Plating cells on agarose underlayers supports the proliferation only of the transformed cells, ensuring that the growth signal stems from the malignant component of the tumor.
as §5, with “analysis. The doxorubicin equivalent for the WL68-DXR stock solution was 4.06 μg/ml.” for “analysis.”
as §6
(§8) A monoclonal antibody against HER-2 (clone 4E200) was purchased from Neomarkers, Inc. (Fremont, Calif.) and used at 1 μg/ml. Optimal working concentrations and incubation time for the HER-2 antibody have been determined in preliminary experiments. […]

[9] = test system: HER-2-positive fresh breast carcinoma specimens; assay: EDR assay, HER-2-positive fresh breast carcinoma specimens; type: cell-based; details: Homo sapiens, read-out: IC50, HER-2-positive group
Method: as §7
as §5, with “analysis. The doxorubicin equivalent for the WL68-DXR stock solution was 4.06 μg/ml.” for “analysis.”
as §6, §8

[10] = molecular target: T1, HER-2 receptor (human epidermal growth factor receptor-2) (human, UniProt P04626 23-1255); assay: 125I-labelled peptide binding to SK-Br3 cells in suspension, cell-bound counts (Example 17)
T1 construct: whole, on cells; Presented on the HER-2-positive SK-Br3 cell line; Raji cells served as the negative control; also called c-erbB-2; neu
Method: WL38 was iodinated by using lodo-Gen method described in herein. Unbound ¹²⁵I was removed by ion-exchange chromatography with MP-1 resin, (BIO-RAD AG). SK-Br3 cells were removed from the flask bottom by the cell scraper, suspended, and centrifuged at 500×g for 1 min. The cell pellet was suspended in the binding buffer (50 mM PBS, 30 mM NaN₃, 0.5% BSA, pH 7.4). The cell suspension (100 μl) containing 500,000 cells were placed into a glass tube and incubated with ¹²⁵I-WL38 peptides at various concentrations. Unbound peptide was removed by centrifugation. Cells were dissolved in 1M NaOH, and applied for ¹²⁵I counting. Binding of the WL38 peptide to Raji cell which were used as a negative control was performed in a similar manner. Non-specific binding of the WL38 to A2870/R cells was determined on the background of unlabeled WL3 8 at concentration 100 μM.

| binding result [10] | Molecule | IC50 [1] [µM] | IC50 [2] [µM] | deaths (HUT 78 tumor; 15 mg/kg dose) | survival of animals (HUT 78 tumor; HUT 78 tumor study, 30 mg/kg, study period 21 days) | mean tumor growth inhibition at day 15 (HUT 78 tumor; single dose 15 mg/kg (equivalent doxorubicin dose)) [%] | tumor growth inhibition [3] [%] | DXR per gram in tumor, heart and muscle tissues [4] | IC50 ([5]; 336 h, after two weeks of storage at −70° C., read-out: IC50, PC3, after freezing the stock solution) [µg/mL] | IC50 ([5]; read-out: IC50, PC3, before freezing the stock solution) [µg/mL] | IC50 [6] [µg/mL] | IC50 [7] [µg/mL] | IC50 ([8]; average, read-out: IC50 (average), HER-2-negative breast carcinomas) [µg/mL] | IC50 ([8]; read-out: IC50 (span over specimens), HER-2-negative breast carcinomas) [µg/mL] | IC50 [9] [µg/mL] |
| --- | --- | --- | --- | --- | --- | --- | --- | --- | --- | --- | --- | --- | --- | --- | --- |
| – | COc1cccc2c1C(=O)c1c(O)c3c(c(O)c1C2=O)C[C@@](O)(C(=O)CO)C[C@@H]3O[C@H]1C[C@H](N)[C@H](O)[C@H](C)O1 [unconjugated DXR, doxorubicin] | 2.1 | 14.2 | one death out of four animals | five out of five animals died within seven days | 12 | 70 | Approximately equal amounts | 0.022 (≈ 0.0405 µM) | 0.027 (≈ 0.0497 µM) | 0.013 ± 0.004 (≈ 0.0239 µM) | 0.03 ± 0.02 (≈ 0.0552 µM) | 0.025 ± 0.025 (≈ 0.046 µM) | 0.004 to 0.083 (≈ 0.00736 to 0.153 µM) | 0.019 ± 0.02 (≈ 0.035 µM) |
| binds | MVKDLSNPSRYL (also: 125I-iodinated, residue not given here, Synthetic HER-2-targeting peptide; also called TT38; 125I-WL38) [WL38 peptide (MVKDLSNPSRYL)] | – | – | – | – | – | – | – | – | – | – | – | – | – | – |
